Test results reported in ChEMBL document CHEMBL1201862, “PubChem BioAssay data set” (2004).
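Where inhibition never reached the appropriate level, the endpoint shown equals the highest concentration tested. Otherwise, values were interpolated linearly from a five-concentration, 48-hour dose response in 96-well plates. Here, GI50 denotes the concentration required for 50% inhibition of growth.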 The source made the active and inactive calls. No stated cut-off is given here; in the data, active = GI50 up to about 1.1 µM and inactive = higher.

Assays:
Test in all cases: NCI anticancer screen, dose series, 48 h
[1] = system: DMS-114
[2] = system: SNB-78
[3] = system: LXFL 529
[4] = system: RXF 631
[5] = system: M19-MEL
[6] = system: HOP-18
[7] = system: DMS-273
[8] = system: KM-20L2
[9] = system: XF498

O=C(Nc1c(-c2nc3ccccc3[nH]2)sc(=S)n1-c1ccccc1)c1ccccc1
GI50 [1]: 98.9 µM (inactive) | GI50 [2]: 61.7 µM (inactive) | GI50 [3]: 58.9 µM (inactive) | GI50 [4]: > 100 µM (inactive) | GI50 [5]: > 100 µM (inactive) | GI50 [6]: > 100 µM (inactive) | GI50 [7]: 91.8 µM (inactive)

CC1CCc2c(sc3ncnc(N/N=C/c4ccc(Cl)cc4)c23)C1 (configuration not stated)
GI50 [8]: 22.8 µM (inactive) | GI50 [7]: 37.4 µM (inactive)

Nc1nnc2nc(CC(=O)/C=C/c3ccccc3)c(=O)[nH]n12
GI50 [1]: > 100 µM (inactive) | GI50 [8]: > 100 µM (inactive) | GI50 [2]: > 100 µM (inactive) | GI50 [3]: > 100 µM (inactive) | GI50 [4]: > 100 µM (inactive) | GI50 [5]: > 100 µM (inactive) | GI50 [9]: > 100 µM (inactive) | GI50 [7]: > 100 µM (inactive)

CSc1n/c(=N\c2ccccc2)sn1-c1ccccc1
GI50 [1]: 3.15 µM (inactive) | GI50 [8]: 13.6 µM (inactive) | GI50 [2]: 20.7 µM (inactive) | GI50 [5]: 5.58 µM (inactive) | GI50 [7]: 8.83 µM (inactive)

CN(C)CCNC(=O)c1cccc2ccc(-c3cccnc3)nc12
GI50 [1]: 6.52 µM (inactive) | GI50 [2]: 7.11 µM (inactive) | GI50 [4]: 3.48 µM (inactive) | GI50 [5]: 5.71 µM (inactive) | GI50 [6]: 13.7 µM (inactive) | GI50 [7]: 3.35 µM (inactive)

O=C(O)CCSC(=S)Nc1cccc(F)c1
GI50 [1]: 19.6 µM (inactive) | GI50 [8]: 89.1 µM (inactive) | GI50 [2]: 97.1 µM (inactive) | GI50 [3]: 62.2 µM (inactive) | GI50 [5]: 28.2 µM (inactive) | GI50 [6]: > 100 µM (inactive) | GI50 [7]: 46.9 µM (inactive)

c1ccc2c(NCCCCCCCCNc3c4ccccc4nc4ccccc34)c3ccccc3nc2c1
GI50 [1]: 1.01 µM (active) | GI50 [8]: 0.354 µM (active) | GI50 [2]: 1.01 µM (active) | GI50 [3]: 0.213 µM (active) | GI50 [4]: 0.178 µM (active) | GI50 [5]: 1.08 µM (active) | GI50 [6]: 1.76 µM (inactive) | GI50 [9]: 1.04 µM (active) | GI50 [7]: 0.043 µM (active)

COc1cccc2nc3cc(C)c(C)cc3nc12
GI50 [1]: > 100 µM (inactive) | GI50 [8]: > 100 µM (inactive) | GI50 [2]: > 100 µM (inactive) | GI50 [3]: > 100 µM (inactive) | GI50 [4]: > 100 µM (inactive) | GI50 [5]: > 100 µM (inactive) | GI50 [6]: > 100 µM (inactive) | GI50 [9]: > 100 µM (inactive) | GI50 [7]: > 100 µM (inactive)

COc1ccc(C(=O)Nc2ccn(CCOC(=O)c3ccc(OC)cc3)c(=O)n2)cc1
GI50 [1]: > 100 µM (inactive) | GI50 [8]: > 100 µM (inactive) | GI50 [2]: 76.2 µM (inactive) | GI50 [3]: > 100 µM (inactive) | GI50 [4]: > 100 µM (inactive) | GI50 [5]: > 100 µM (inactive) | GI50 [6]: > 100 µM (inactive) | GI50 [9]: > 100 µM (inactive) | GI50 [7]: > 100 µM (inactive)

Cn1c(=O)c(NC(=O)C(Cl)(Cl)Cl)nc2ccccc21
GI50 [1]: > 100 µM (inactive) | GI50 [8]: > 100 µM (inactive) | GI50 [2]: > 100 µM (inactive) | GI50 [3]: > 100 µM (inactive) | GI50 [4]: > 100 µM (inactive) | GI50 [5]: > 100 µM (inactive) | GI50 [9]: > 100 µM (inactive) | GI50 [7]: > 100 µM (inactive)

CC(=O)OCC1OC(N2C(=O)/C(=N\NC(N)=S)c3ccc([N+](=O)[O-])cc32)C(OC(C)=O)C1OC(C)=O (configuration not stated)
GI50 [1]: 23.1 µM (inactive) | GI50 [8]: 31.5 µM (inactive) | GI50 [2]: 33.3 µM (inactive) | GI50 [3]: 50 µM (inactive) | GI50 [5]: 18.4 µM (inactive) | GI50 [6]: > 100 µM (inactive) | GI50 [9]: 29.9 µM (inactive) | GI50 [7]: 17.4 µM (inactive)

CC(=O)NC(CCCN)C(=O)NCc1ccccc1 (configuration not stated)
GI50 [1]: > 100 µM (inactive) | GI50 [8]: > 100 µM (inactive) | GI50 [2]: > 100 µM (inactive) | GI50 [3]: > 100 µM (inactive) | GI50 [5]: > 100 µM (inactive) | GI50 [9]: > 100 µM (inactive) | GI50 [7]: > 100 µM (inactive)

CCNC(=O)/C=C/CCC#Cc1ccc(-c2ccc(-c3cccs3)s2)s1
GI50 [1]: > 100 µM (inactive) | GI50 [8]: > 100 µM (inactive) | GI50 [2]: > 100 µM (inactive) | GI50 [3]: > 100 µM (inactive) | GI50 [5]: > 100 µM (inactive) | GI50 [6]: 4.82 µM (inactive) | GI50 [9]: 2.71 µM (inactive) | GI50 [7]: > 100 µM (inactive)

COC(=O)c1ccccc1NC(=O)C(=O)CC(=O)c1ccccc1NC1=CC(=O)C(=O)c2ccccc21
GI50 [1]: 1.71 µM (inactive) | GI50 [8]: 72.9 µM (inactive) | GI50 [2]: 7.66 µM (inactive) | GI50 [3]: 5.09 µM (inactive) | GI50 [4]: 26.5 µM (inactive) | GI50 [5]: 2.02 µM (inactive) | GI50 [6]: 7.59 µM (inactive) | GI50 [9]: 15.6 µM (inactive) | GI50 [7]: 10.7 µM (inactive)

C=CCN1C(=O)CS/C1=N\NC(=O)c1c(C)nc2sccn12
GI50 [1]: > 100 µM (inactive) | GI50 [8]: > 100 µM (inactive) | GI50 [3]: > 100 µM (inactive) | GI50 [4]: > 100 µM (inactive) | GI50 [5]: > 100 µM (inactive) | GI50 [6]: > 100 µM (inactive) | GI50 [9]: > 100 µM (inactive) | GI50 [7]: > 100 µM (inactive)

COc1ccc(C2NCCc3c2[nH]c2ccccc32)cc1 (configuration not stated)
GI50 [8]: > 100 µM (inactive) | GI50 [3]: 95.3 µM (inactive) | GI50 [4]: 67 µM (inactive) | GI50 [5]: > 100 µM (inactive) | GI50 [6]: 58.7 µM (inactive) | GI50 [9]: 28.1 µM (inactive)

NC(=O)NC(=O)C1CCC(=O)N1S(=O)(=O)c1ccc(Cl)cc1 (configuration not stated)
GI50 [1]: > 100 µM (inactive) | GI50 [8]: > 100 µM (inactive) | GI50 [3]: > 100 µM (inactive) | GI50 [4]: > 100 µM (inactive) | GI50 [5]: > 100 µM (inactive) | GI50 [6]: > 100 µM (inactive) | GI50 [9]: > 100 µM (inactive)

CCOC(=O)/C(O)=C/c1cc(OC)cc(=O)o1
GI50 [1]: > 100 µM (inactive) | GI50 [8]: > 100 µM (inactive) | GI50 [2]: > 100 µM (inactive) | GI50 [3]: > 100 µM (inactive) | GI50 [5]: > 100 µM (inactive) | GI50 [6]: > 100 µM (inactive) | GI50 [7]: > 100 µM (inactive)

O=C1N2Cc3c4ccc5c3CN3C(=O)N6Cc7c(ccc(c7CN1C6(c1ccccc1)C23c1ccccc1)OCCOCCOc1cc(Br)c(Br)cc1OCCOCCO4)OCCOCCOc1cc(Br)c(Br)cc1OCCOCCO5 (configuration not stated)
GI50 [1]: 41.2 µM (inactive) | GI50 [8]: > 100 µM (inactive) | GI50 [2]: > 100 µM (inactive) | GI50 [3]: 67.3 µM (inactive) | GI50 [4]: > 100 µM (inactive) | GI50 [5]: > 100 µM (inactive) | GI50 [6]: > 100 µM (inactive) | GI50 [7]: > 100 µM (inactive)

CSc1nc2c(nc(N)n2C2OC(CO)C(O)C(O)C2O)c(=O)n1C (configuration not stated)
GI50 [1]: > 100 µM (inactive) | GI50 [8]: > 100 µM (inactive) | GI50 [2]: > 100 µM (inactive) | GI50 [3]: > 100 µM (inactive) | GI50 [5]: > 100 µM (inactive) | GI50 [6]: > 100 µM (inactive) | GI50 [9]: > 100 µM (inactive)

COc1cc2cc[n+](C)c(Cc3ccccc3)c2cc1OC
GI50 [1]: 79.6 µM (inactive) | GI50 [8]: > 100 µM (inactive) | GI50 [2]: > 100 µM (inactive) | GI50 [3]: > 100 µM (inactive) | GI50 [5]: > 100 µM (inactive) | GI50 [6]: > 100 µM (inactive) | GI50 [7]: > 100 µM (inactive)
